Results published in patent publication US20150105252A1, “SUBSTITUTED PYRAZOLES AS HERBICIDES” (E I DU PONT DE NEMOURS AND COMPANY, priority 2013, published 2015).

Experiments:
[1] = test system: mustard, wild; assay: Test D postemergence; type: in vivo, Sinapis arvensis; details: scale 0 to 100
In short: (§1)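 Postemergence activity was tested on plants at the 1- to 4-leaf stage (2–18 cm) grown in peat-based medium, and preemergence activity on seeds in silt loam, with chemicals in a surfactant-containing non-phytotoxic solvent. Controlled-environment growth lasted 14–21 days before visual 0–100 scoring.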

[2] = test system: mustard, wild; assay: Test D preemergence; type: in vivo, Sinapis arvensis; details: Preemergence, scale 0 to 100
In short: as §1

[3] = test system: oat, wild; assay: Test D postemergence; type: in vivo, Avena fatua; details: scale 0 to 100
In short: as §1

[4] = test system: barley, spring; assay: Test D preemergence; type: in vivo, Hordeum vulgare; details: Preemergence, scale 0 to 100
In short: as §1

[5] = test system: barley, winter; assay: Test D preemergence; type: in vivo, Hordeum vulgare; details: Preemergence, scale 0 to 100
In short: as §1

[6] = test system: pigweed; assay: Test D preemergence; type: in vivo, Amaranthus retroflexus; details: Preemergence, scale 0 to 100
In short: as §1

[7] = test system: bluegrass; assay: Test D preemergence; type: in vivo, Poa annua; details: Preemergence, scale 0 to 100
In short: as §1

[8] = test system: bromegrass, downy; assay: Test D postemergence; type: in vivo, Bromus tectorum; details: scale 0 to 100
In short: as §1

[9] = test system: ryegrass, Italian; assay: Test D postemergence; type: in vivo, Lolium multiflorum; details: scale 0 to 100
In short: as §1

[10] = test system: lambsquarters; assay: Test D preemergence; type: in vivo, Chenopodium album; details: Preemergence, scale 0 to 100
In short: as §1

[11] = test system: lambsquarters; assay: Test D postemergence; type: in vivo, Chenopodium album; details: scale 0 to 100
In short: as §1

[12] = test system: kochia; assay: Test D postemergence; type: in vivo, Kochia scoparia; details: scale 0 to 100
In short: as §1

[13] = test system: oat, wild; assay: Test D preemergence; type: in vivo, Avena fatua; details: Preemergence, scale 0 to 100
In short: as §1

[14] = test system: galium; assay: Test D postemergence; type: in vivo, Galium aparine; details: scale 0 to 100
In short: as §1

[15] = test system: kochia; assay: Test D preemergence; type: in vivo, Kochia scoparia; details: Preemergence, scale 0 to 100
In short: as §1

[16] = test system: field violet; assay: Test D preemergence; type: in vivo, Viola arvensis; details: Preemergence, scale 0 to 100
In short: as §1

[17] = test system: canarygrass; assay: Test D postemergence; type: in vivo, Phalaris minor; details: scale 0 to 100
In short: as §1

[18] = test system: foxtail, green; assay: Test D postemergence; type: in vivo, Setaria viridis; details: scale 0 to 100
In short: as §1

[19] = test system: chamomile; assay: Test D preemergence; type: in vivo, Matricaria inodora; details: Preemergence, scale 0 to 100
In short: as §1

[20] = test system: buckwheat, wild; assay: Test D postemergence; type: in vivo, Polygonum convolvulus; details: scale 0 to 100
In short: as §1

## CCc1cc(C(=O)NCC(F)(F)F)nn1Cc1ccnc(SC(F)(F)F)c1 [Compound 214]
[1]; Postemergence, 31 g ai/ha
  Mustard, Wild plant response rating: 70
[1]; Postemergence, 125 g ai/ha
  Mustard, Wild plant response rating: 100
[1]; Postemergence, 250 g ai/ha
  Mustard, Wild plant response rating: 100
[1]; postemergence, 62 g ai/ha
  Mustard, Wild plant response rating: 70
[2]; 62 g ai/ha
  Plant response rating, Mustard, Wild: 100
[2]; 125 g ai/ha
  Plant response rating, Mustard, Wild: 100
[2]; 250 g ai/ha
  Plant response rating, Mustard, Wild: 100
[3]; Postemergence, 31 g ai/ha
  Oat, Wild plant response rating: 15
[3]; Postemergence, 125 g ai/ha
  Oat, Wild plant response rating: 20
[3]; Postemergence, 250 g ai/ha
  Oat, Wild plant response rating: 40
[3]; postemergence, 62 g ai/ha
  Oat, Wild plant response rating: 15
[4]; 31 g ai/ha
  Plant response rating, Barley, Spring: 10
[4]; 62 g ai/ha
  Plant response rating, Barley, Spring: 40
[4]; 125 g ai/ha
  Plant response rating, Barley, Spring: 65
[4]; 250 g ai/ha
  Plant response rating, Barley, Spring: 80
[5]; 31 g ai/ha
  Plant response rating, Barley, Winter: 15
[5]; 62 g ai/ha
  Plant response rating, Barley, Winter: 35
[5]; 125 g ai/ha
  Plant response rating, Barley, Winter: 55
[5]; 250 g ai/ha
  Plant response rating, Barley, Winter: 65
[6]; 62 g ai/ha
  Plant response rating, Pigweed: 100
[6]; 125 g ai/ha
  Plant response rating, Pigweed: 100
[6]; 250 g ai/ha
  Plant response rating, Pigweed: 100
[7]; 31 g ai/ha
  Plant response rating, Bluegrass: 40
[7]; 62 g ai/ha
  Plant response rating, Bluegrass: 65
[7]; 125 g ai/ha
  Plant response rating, Bluegrass: 85
[7]; 250 g ai/ha
  Plant response rating, Bluegrass: 100
[8]; Postemergence, 31 g ai/ha
  Bromegrass, Downy plant response rating: 15
[8]; Postemergence, 125 g ai/ha
  Bromegrass, Downy plant response rating: 20
[8]; Postemergence, 250 g ai/ha
  Bromegrass, Downy plant response rating: 20
[8]; postemergence, 62 g ai/ha
  Bromegrass, Downy plant response rating: 15
[9]; Postemergence, 31 g ai/ha
  Ryegrass, Italian plant response rating: 10
[9]; Postemergence, 125 g ai/ha
  Ryegrass, Italian plant response rating: 20
[9]; Postemergence, 250 g ai/ha
  Ryegrass, Italian plant response rating: 45
[9]; postemergence, 62 g ai/ha
  Ryegrass, Italian plant response rating: 10
[10]; 62 g ai/ha
  Plant response rating, Lambsquarters: 90
[10]; 125 g ai/ha
  Plant response rating, Lambsquarters: 100
[10]; 250 g ai/ha
  Plant response rating, Lambsquarters: 100
[11]; Postemergence, 31 g ai/ha
  Lambsquarters plant response rating: 65
[11]; Postemergence, 125 g ai/ha
  Lambsquarters plant response rating: 80
[11]; Postemergence, 250 g ai/ha
  Lambsquarters plant response rating: 90
[11]; postemergence, 62 g ai/ha
  Lambsquarters plant response rating: 65
[12]; Postemergence, 31 g ai/ha
  Kochia plant response rating: 70
[12]; Postemergence, 125 g ai/ha
  Kochia plant response rating: 80
[12]; Postemergence, 250 g ai/ha
  Kochia plant response rating: 85
[12]; postemergence, 62 g ai/ha
  Kochia plant response rating: 70
[13]; 62 g ai/ha
  Plant response rating, Oat, Wild: 20
[13]; 125 g ai/ha
  Plant response rating, Oat, Wild: 70
[13]; 250 g ai/ha
  Plant response rating, Oat, Wild: 95
[14]; Postemergence, 31 g ai/ha
  Galium plant response rating: 80
[14]; Postemergence, 125 g ai/ha
  Galium plant response rating: 80
[14]; Postemergence, 250 g ai/ha
  Galium plant response rating: 100
[14]; postemergence, 62 g ai/ha
  Galium plant response rating: 80
[15]; 62 g ai/ha
  Plant response rating, Kochia: 70
[15]; 125 g ai/ha
  Plant response rating, Kochia: 100
[15]; 250 g ai/ha
  Plant response rating, Kochia: 100
[16]; 62 g ai/ha
  Plant response rating, Field Violet: 100
[16]; 125 g ai/ha
  Plant response rating, Field Violet: 100
[16]; 250 g ai/ha
  Plant response rating, Field Violet: 100
[17]; Postemergence, 31 g ai/ha
  Canarygrass plant response rating: 15
[17]; Postemergence, 125 g ai/ha
  Canarygrass plant response rating: 15
[17]; Postemergence, 250 g ai/ha
  Canarygrass plant response rating: 30
[17]; postemergence, 62 g ai/ha
  Canarygrass plant response rating: 15
[18]; Postemergence, 31 g ai/ha
  Foxtail, Green plant response rating: 15
[18]; Postemergence, 125 g ai/ha
  Foxtail, Green plant response rating: 35
[18]; Postemergence, 250 g ai/ha
  Foxtail, Green plant response rating: 60
[18]; postemergence, 62 g ai/ha
  Foxtail, Green plant response rating: 15
[19]; 31 g ai/ha
  Plant response rating, Chamomile: 50
[19]; 62 g ai/ha
  Plant response rating, Chamomile: 100
[19]; 125 g ai/ha
  Plant response rating, Chamomile: 100
[19]; 250 g ai/ha
  Plant response rating, Chamomile: 100
[20]; Postemergence, 31 g ai/ha
  Buckwheat, Wild plant response rating: 70
[20]; Postemergence, 125 g ai/ha
  Buckwheat, Wild plant response rating: 70
[20]; Postemergence, 250 g ai/ha
  Buckwheat, Wild plant response rating: 80
[20]; postemergence, 62 g ai/ha
  Buckwheat, Wild plant response rating: 70
